Each compound was assayed on P. aeruginosa PA14 (assay: IC50 of compounds in conjunction with colistin relative to P. aeruginosa (growth, absorbance at 600 nm)). Details: Pseudomonas aeruginosa, PA14, 17 h.
Assay type: cell-based
Experimental: Various compounds of formula I in Example 1 above were tested to determine IC50 of the compounds in conjunction with colistin relative to P. aeruginosa. IC50 testing of the compounds was conducted to the following protocol. Overnight cultures of P. aeruginosa PA14 were back diluted into fresh LB to an OD600 of 2.5×10^−3. Using polypropylene 96 well plates (Corning 3879), the potential antibiotic adjuvant was assayed with a 3-fold dilution starting with a […]. The concentration of colistin was held constant at sublethal concentration ([…]), using a freshly prepared colistin stock and minimizing transfers of colistin-containing solutions. After 17 h of aerobic growth at 37° C., 300 rpm, the absorbance at 600 nm was recorded.
Compound `C#Cc1ccc(OCCCCCC(=O)Nc2ccnc(C(F)(F)F)c2)cc1` [Compound S20, 6-(4-Ethynylphenoxy)-N-(2-(trifluoromethyl)pyridin-4-yl)hexanamide] has an IC50 of 15.5 µM.

Same assay, conditions: Pseudomonas aeruginosa; P. aeruginosa PA14 in LB; colistin held constant at sublethal concentration (0.25 to 0.375 pg/mL); 3-fold dilution starting with a 250 concentration; 17 h aerobic growth at 37° C.; absorbance at 600 nm; read-out: IC50
Work on `CSc1ccc(OCCCCCC(=O)Nc2ccnc(C(F)(F)F)c2)cc1` [Compound S17, 6-(4-(Methylthio)phenoxy)-N-(2-(trifluoromethyl)pyridin-4-yl)hexanamide] yielded an IC50 of 14 µM.
In the case of `C#Cc1ccccc1OCCCCCC(=O)Nc1ccnc(C(F)(F)F)c1` [Compound S22, 6-(2-Ethynylphenoxy)-N-(2-(trifluoromethyl)pyridin-4-yl)hexanamide], the IC50 is reported as 15.5 µM.
In the case of `CC(C)(C)c1ccc(OCCCCCC(=O)Nc2ccnc(C(F)(F)F)c2)cc1` [Compound S27, 6-(4-(tert-Butyl)phenoxy)-N-(2-(trifluoromethyl)pyridin-4-yl)hexanamide], the IC50 is reported as 2.6 µM.
In the case of `CC(C)(C)c1cccc(OCCCCCC(=O)Nc2ccnc(C(F)(F)F)c2)c1` [Compound S28, 6-(3-(tert-Butyl)phenoxy)-N-(2-(trifluoromethyl)pyridin-4-yl)hexanamide], the IC50 is reported as 0.8 µM.
Compound `O=C(CCCCCOc1ccc(C(=O)OCc2ccccc2)cc1)Nc1ccnc(C(F)(F)F)c1` [Compound S30, Benzyl 4-((6-oxo-6((2-(trifluoromethyl)pyridin-4-yl)amino)hexyl)oxy)benzoate] has an IC50 of 2.6 µM.
In the case of `CC(=O)c1ccccc1OCCCCCC(=O)Nc1ccnc(C(F)(F)F)c1` [Compound S32, 6-(2-Acetylphenoxy)-N-(2-(trifluoromethyl)pyridin-4-yl)hexanamide], the IC50 is reported as 57 µM.
Work on `COC(=O)c1ccc(OCCCCCC(=O)Nc2ccnc(C(F)(F)F)c2)cc1` [Compound S34, Methyl 4-((6-oxo-6-((2-(trifluoromethyl)pyridin-4-yl)amino)hexyl)oxy)benzoate] yielded an IC50 of 88 µM.
`O=C(CCCCCOc1ccc2ccccc2c1)Nc1ccnc(C(F)(F)F)c1` [Compound S38, 6-(Naphthalen-2-yloxy)-N-(2-(trifluoromethyl)pyridin-4-yl)hexanamide] was tested, and the IC50 was 2.6 µM.
In the case of `O=C(CCCCCOc1cccc2ccccc12)Nc1ccnc(C(F)(F)F)c1` [Compound S39, 6-(Naphthalen-1-yloxy)-N-(2-(trifluoromethyl)pyridin-4-yl)hexanamide], the IC50 is reported as 15 µM.
For `O=C(CCCCCN1CCN(c2ccccc2)CC1)Nc1ccnc(C(F)(F)F)c1` [Compound S40, 6-(4-Phenylpiperazin-1-yl)-N-(2-(trifluoromethyl)pyridin-4-yl)hexanamide], the IC50 was 50 µM.
`O=C(CCCCCN1CCN(c2ccccn2)CC1)Nc1ccnc(C(F)(F)F)c1` [Compound S41, 6-(4-(Pyridin-2-yl)piperazin-1-yl)-N-(2-(trifluoromethyl)pyridin-4-yl)hexanamide] gave an IC50 of 95 µM.
With `O=C(CCCCCN1CCN(c2cccnc2)CC1)Nc1ccnc(C(F)(F)F)c1` [Compound S42, 6-(4-(Pyridin-3-yl)piperazin-1-yl)-N-(2-(trifluoromethyl)pyridin-4-yl)hexanamide] the IC50 was 70 µM.
For `O=C(CCCCCN1CCN(c2ccncc2)CC1)Nc1ccnc(C(F)(F)F)c1` [Compound S43, 6-(4-(Pyridin-4-yl)piperazin-1-yl)-N-(2-(trifluoromethyl)pyridin-4-yl)hexanamide], the IC50 was 75 µM.
